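96-well plates; 48 h exposure; 5 concentrations. Endpoints by linear interpolation between flanking doses. Not reached: highest tested concentration assigned. TGI: total growth inhibition.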
Key:
Experiment in all cases: NCI tumour cell line growth inhibition, 48 h
786-0 renal = system: 786-0 renal
A498 renal = system: A498 renal
A549 NSCLC = system: A549 NSCLC
ACHN renal = system: ACHN renal
CAKI-1 renal = system: CAKI-1 renal
CCRF-CEM leukemia = system: CCRF-CEM leukemia
COLO 205 colon = system: COLO 205 colon
DLD-1 colon = system: DLD-1 colon
DMS 114 small cell lung = system: DMS 114 small cell lung
DMS 273 small cell lung = system: DMS 273 small cell lung
EKVX NSCLC = system: EKVX NSCLC
HCC-2998 colon = system: HCC-2998 colon
HCT-116 colon = system: HCT-116 colon
HCT-15 colon = system: HCT-15 colon
HL-60(TB) leukemia = system: HL-60(TB) leukemia
HOP-18 NSCLC = system: HOP-18 NSCLC
HOP-62 NSCLC = system: HOP-62 NSCLC
HOP-92 NSCLC = system: HOP-92 NSCLC
HT29 colon = system: HT29 colon
IGROV1 ovarian = system: IGROV1 ovarian
K-562 leukemia = system: K-562 leukemia
KM12 colon = system: KM12 colon
KM20L2 colon = system: KM20L2 colon
LOX IMVI melanoma = system: LOX IMVI melanoma
LXFL 529 NSCLC = system: LXFL 529 NSCLC
M14 melanoma = system: M14 melanoma
M19-MEL melanoma = system: M19-MEL melanoma
MALME-3M melanoma = system: MALME-3M melanoma
MOLT-4 leukemia = system: MOLT-4 leukemia
NCI-H23 lung = system: NCI-H23 lung
NCI-H460 lung = system: NCI-H460 lung
NCI-H522 lung = system: NCI-H522 lung
OVCAR-3 ovarian = system: OVCAR-3 ovarian
OVCAR-4 ovarian = system: OVCAR-4 ovarian
OVCAR-5 ovarian = system: OVCAR-5 ovarian
OVCAR-8 ovarian = system: OVCAR-8 ovarian
RPMI-8226 leukemia = system: RPMI-8226 leukemia
RXF 393 renal = system: RXF 393 renal
SF-268 CNS = system: SF-268 CNS
SF-295 CNS = system: SF-295 CNS
SF-539 CNS = system: SF-539 CNS
SK-MEL-2 melanoma = system: SK-MEL-2 melanoma
SK-MEL-28 melanoma = system: SK-MEL-28 melanoma
SK-MEL-5 melanoma = system: SK-MEL-5 melanoma
SK-OV-3 ovarian = system: SK-OV-3 ovarian
SN12C renal = system: SN12C renal
SNB-19 CNS = system: SNB-19 CNS
SNB-75 CNS = system: SNB-75 CNS
SNB-78 CNS = system: SNB-78 CNS
SW-620 colon = system: SW-620 colon
TK-10 renal = system: TK-10 renal
U251 CNS = system: U251 CNS
UACC-257 melanoma = system: UACC-257 melanoma
UACC-62 melanoma = system: UACC-62 melanoma
UO-31 renal = system: UO-31 renal
XF 498 CNS = system: XF 498 CNS
RXF-631 renal = system: RXF-631 renal

Measured: TGI

N/N=C1/C(=O)N(c2ccc(Cl)cc2)C(=O)C(=O)C1c1nc2ccccc2s1 (centres undefined)
> 100 µM: 786-0 renal | A498 renal | A549 NSCLC | ACHN renal | CAKI-1 renal | CCRF-CEM leukemia | COLO 205 colon | DLD-1 colon | DMS 114 small cell lung | DMS 273 small cell lung | EKVX NSCLC | HCC-2998 colon | HCT-116 colon | HCT-15 colon | HL-60(TB) leukemia | HOP-18 NSCLC | HOP-62 NSCLC | HOP-92 NSCLC | HT29 colon | IGROV1 ovarian | K-562 leukemia | KM12 colon | KM20L2 colon | LOX IMVI melanoma | LXFL 529 NSCLC | M14 melanoma | M19-MEL melanoma | MALME-3M melanoma | MOLT-4 leukemia | NCI-H23 lung | NCI-H460 lung | NCI-H522 lung | OVCAR-3 ovarian | OVCAR-4 ovarian | OVCAR-5 ovarian | OVCAR-8 ovarian | RPMI-8226 leukemia | RXF 393 renal | SF-268 CNS | SF-295 CNS | SF-539 CNS | SK-MEL-2 melanoma | SK-MEL-28 melanoma | SK-MEL-5 melanoma | SK-OV-3 ovarian | SN12C renal | SNB-19 CNS | SNB-75 CNS | SNB-78 CNS | SW-620 colon | TK-10 renal | U251 CNS | UACC-257 melanoma | UACC-62 melanoma | UO-31 renal | XF 498 CNS

N#Cc1c(N)oc2cc3c(C#N)c(N)oc3cc12
> 100 µM: 786-0 renal | A549 NSCLC | ACHN renal | CAKI-1 renal | CCRF-CEM leukemia | COLO 205 colon | DLD-1 colon | DMS 114 small cell lung | DMS 273 small cell lung | EKVX NSCLC | HCC-2998 colon | HCT-15 colon | HL-60(TB) leukemia | HOP-18 NSCLC | HOP-62 NSCLC | HOP-92 NSCLC | HT29 colon | IGROV1 ovarian | K-562 leukemia | KM12 colon | KM20L2 colon | LOX IMVI melanoma | LXFL 529 NSCLC | M14 melanoma | M19-MEL melanoma | MALME-3M melanoma | MOLT-4 leukemia | NCI-H23 lung | NCI-H460 lung | NCI-H522 lung | OVCAR-3 ovarian | OVCAR-4 ovarian | OVCAR-5 ovarian | OVCAR-8 ovarian | RPMI-8226 leukemia | RXF 393 renal | RXF-631 renal | SF-268 CNS | SF-295 CNS | SF-539 CNS | SK-MEL-2 melanoma | SK-MEL-28 melanoma | SK-MEL-5 melanoma | SK-OV-3 ovarian | SN12C renal | SNB-19 CNS | SNB-75 CNS | SW-620 colon | TK-10 renal | U251 CNS | UACC-257 melanoma | UACC-62 melanoma | UO-31 renal

From PubChem BioAssay (NCI)
